The values below come from publication PMC2877818, “Thermodynamics of RTA3 peptide binding to membranes and consequences for antimicrobial activity^” (Biochimica et Biophysica Acta, 2010).

Read-outs that look alike come from different tables or passages of the source.

The subject of assay [1] is E. coli 345-2 outer membrane. The assay is described as follows: Outer membrane permeabilization to nitrocefin. The conditions noted are these: read-out: OM permeabilization: peptide concentration resulting in half-maximal translocated substrate turnover, triplicate.
Procedure: Outer and inner membrane permeabilities were determined as described previously [16]. E. coli cells overexpressing β-lactamase were grown to logarithmic phase, washed, and resuspended (10^8 CFU/mL) in 10 mM HEPES buffer pH 7.4. About 90 µL of 1 × 10^7 CFU of the test organism (E. coli 345-2) containing 20 µg/mL nitrocefin was then added to 96-well microtitre plates containing serial twofold dilutions of antimicrobial peptides. Nitrocefin cleavage was monitored by measuring A490. All data were measured in triplicate.
Assay [2] has as its system E. coli UB 122. The assay is classed as cell-based. The following applies: broth microdilution, Mueller Hinton (plus cations) broth, 24 hours at 37 °C; triplicate, averaged. In general terms: Dilution methods test growth across graded concentrations, often in twofold steps.
The subject of assay [3] is P. aeruginosa ATCC 27853. The assay is classed as cell-based, Pseudomonas aeruginosa. The following applies: broth microdilution, Mueller Hinton (plus cations) broth, 24 hours at 37 °C, no visible growth; triplicate, averaged. On the procedure:
(§1) Minimum inhibitory concentrations (MIC) of the peptides were determined by broth microdilution according to the Clinical and Laboratory Standards Institute. About 90 µL of 0.5–1 × 10^6 CFU/mL of Pseudomonas aeruginosa ATCC 27853 and E. coli ATCC 25922 in Mueller Hinton media (plus cations) broth (BD, Baltimore, MD, USA) was incubated in 96-well microtitre plates with serial twofold dilutions of the peptides. Minimum inhibitory concentrations (MICs) were defined as the lowest peptide concentration with no visible growth of bacteria after 24 hours at 37 °C. All measurements were made in triplicate and averaged.

Assay [4] concerns E. coli 345-2. The assay is classed as cell-based. The following applies: broth microdilution, Mueller Hinton (plus cations) broth, 24 hours at 37 °C; triplicate, averaged.
Assay [5] concerns E. coli ATCC 25922. Type of assay: cell-based. The following applies: broth microdilution, Mueller Hinton (plus cations) broth, 24 hours at 37 °C, no visible growth; triplicate, averaged. On the procedure: as §1
Assay [6] deals with E. coli 122 inner membrane. The assay is described as follows: Inner membrane permeabilization to ONPG. The conditions noted are these: read-out: IM permeabilization: peptide concentration resulting in half-maximal translocated substrate turnover, PBS pH 7.4, 30 °C, triplicate.
Procedure: Inner membrane permeability was determined by measuring the β-galactosidase activity of lactose permease-deficient E. coli at 30 °C using ONPG as substrate. E. coli cells overexpressing the β- galactosidase enzyme (E. coli 122) were grown to logarithmic phase, washed, and resuspended (10^8 CFU/mL) in phosphate buffered saline pH 7.4. About 90 µL of 1 × 10^7 CFU of the test organism containing 0.4 mg/mL ONPG was then added to 96-well microtitre plates containing serial twofold dilutions of antimicrobial peptides. The production of o-nitrophenol was monitored spectrophotometrically at 420 nm. An equivalent volume of water replaced the peptide solution in the control assay. All data were measured in triplicate.

For Polymyxin E, the EC50 in assay [1] (+Mg2+ (0.4 mM MgCl2), nitrocefin, 10 mM HEPES pH 7.4) was 1800 nM; in assay [1] (−Mg2+, nitrocefin 20 µg/mL, 10 mM HEPES pH 7.4, A490), 2000 nM; in assay [6] (+Mg2+ (0.4 mM MgCl2), ONPG) it was > 100 µM; in assay [6] (−Mg2+, ONPG 0.4 mg/mL, 420 nm) it was > 40 µM. The “MIC E. coli UB 122” value in assay [2] was 0.5 µM. Further, the “MIC P. aeruginosa ATCC 27853” value in assay [3] stood at 2 µM. The “MIC E. coli 345-2” value in assay [4] stood at 0.5 µM. For the same substance, the “MIC E. coli ATCC 25922” value in assay [5] is 1 µM.
